Measurements taken from US9139502B2, “Use of an urushiol compound in preparation of pharmaceutical compositions for inhibiting Smad3 phosphorylation” (Southern Hospital, Southern Medical University, priority 2013, dated 2015).

What was measured:
[1] = system: p38; assay: Western blot of p38 phosphorylation in UUO kidneys; assay type: in vivo, rat; settings: UUO rats, GQ-5 40 mg/kg daily i.p. right after UUO, sacrificed day 14
Protocol: (§1) Male Sprague-Dawley rats with body weight 200 to 250 g were randomized into 3 groups (n=6 in each group): (1) sham operated rats; (2) UUO rats; (3) UUO+GQ-5 rats.
(§2) GQ-5 was dissolved in 5% propylene glycol.
(§3) (3) UUO+GQ-5 rats: daily intraperitoneal injection of GQ-5 (40 mg/kg body weight) right after UUO;
UUO was performed using an established protocol as described. GQ-5 was dissolved in 5% propylene glycol. Rats were administrated with GQ-5 as described before. All the rats were sacrificed 14 days after UUO. Western blot analyses were performed to examine the Smad4, Smad7 expression and p38, PI3K, ERK phosphorylation.

[2] = system: fibronectin; assay: Real-time PCR of TGF-β1-induced fibronectin mRNA in vitro; assay type: cell-based, rat; settings: NRK 52E and NRK 49F cells, GQ-5 0.1-2.5 μM pre-treated 1 h, TGF-β1 10 ng/ml 36 h
Protocol: (§4) NRK52E and NRK49F cells were cultured in DMEM-Ham's medium supplemented with 10% fetal bovine serum. The cells reached at approximately 50% confluence were used for in vitro experiments. Cells were serum-starved for 12 h, and randomized into 6 groups: (1) Controls; (2) GQ-5 only; (3) TGF-β1 only; (4) TGF-β1+GQ-5 0.1 μM; (5) TGF-β1+GQ-5 0.5 μM; (6) TGF-β1+GQ-5 2.5 μM
(2) GQ-5 only: pre-treated with GQ-5 (2.5 μM) for 1 h, followed with DMEM for 36 h
(3) TGF-β1 only: pre-treated with DMSO for 1 h, followed with TGF-β1 (10 ng/ml) for 36 h
(4) TGF-β1+GQ-5 0.1 μM: pre-treated with GQ-5 (0.1 μM) for 1 h, followed with TGF-β1 (10 ng/ml) for 36 h
(5) TGF-β1+GQ-5 0.5 μM: pre-treated with GQ-5 (0.5 μM) for 1 h, followed with TGF-β1 (10 ng/ml) for 36 h
(6) TGF-β1+GQ-5 2.5 μM: pre-treated with GQ-5 (2.5 μM) for 1 h, followed with TGF-β1 (10 ng/ml) for 36 h
GQ-5 was dissolved in DMSO. Cells were treated as described. Cells were collected for mRNA extraction. Real-rime PCR was performed to examine the mRNA expression of α-SMA, collagen I and fibronectin.

[3] = system: α-SMA; assay: Western blot of TGF-β1-induced α-SMA protein in vitro; assay type: cell-based, rat; settings: NRK 52E and NRK 49F cells, GQ-5 0.1-2.5 μM pre-treated 1 h, TGF-β1 10 ng/ml 48 h
Protocol: as §4
(§5) (2) GQ-5 only: pre-treated with GQ-5 (2.5 μM) for 1 h, followed with DMEM for 48 h
(§6) (3) TGF-β1 only: pre-treated with DMSO for 1 h, followed with TGF-β1 (10 ng/ml) for 48 h
(§7) (4) TGF-β1+GQ-5 0.1 μM: pre-treated with GQ-5 (0.1 μM) for 1 h, followed with TGF-β1 (10 ng/ml) for 48 h
(§8) (5) TGF-β1+GQ-5 0.5 μM: pre-treated with GQ-5 (0.5 μM) for 1 h, followed with TGF-β1 (10 ng/ml) for 48 h
(§9) (6) TGF-β1+GQ-5 2.5 μM: pre-treated with GQ-5 (2.5 μM) for 1 h, followed with TGF-β1 (10 ng/ml) for 48 h
(§10) GQ-5 was dissolved in DMSO. Cells were treated as described. Cells lysates were immunebloted with antibodies against α-SMA, collagen I and fibronectin.

[4] = system: collagen I; assay: Western blot of TGF-β1-induced collagen I protein in vitro; assay type: cell-based, rat; settings: NRK 52E and NRK 49F cells, GQ-5 0.1-2.5 μM pre-treated 1 h, TGF-β1 10 ng/ml 48 h
Protocol: as §4, §5, §6, §7, §8, §9, §10

[5] = system: fibronectin; assay: Western blot of TGF-β1-induced fibronectin protein in vitro; assay type: cell-based, rat; settings: NRK 52E and NRK 49F cells, GQ-5 0.1-2.5 μM pre-treated 1 h, TGF-β1 10 ng/ml 48 h
Protocol: as §4, §5, §6, §7, §8, §9, §10

[6] = system: collagen I; assay: Collagen I expression in UUO kidney tissue (real-time PCR, immunohistochemistry, Western blot); assay type: in vivo, rat; settings: UUO rats, GQ-5 40 mg/kg daily i.p., sacrificed day 14
Protocol: Male Sprague-Dawley rats were randomized into 4 groups (n=6 in each group): (1) sham operated rats; (2) UUO rats; (3) UUO+GQ-5 d1 rats; (4) UUO+GQ-5 d7 rats.
as §2
(3) UUO+GQ-5 d1 rats: daily intraperitoneal injection of GQ-5 (40 mg/kg body weight) right after UUO;
(4) UUO+GQ-5 d7 rats: daily intraperitoneal injection of GQ-5 (40 mg/kg body weight) 7 days after UUO.
UUO was performed using an established protocol as described. GQ-5 was dissolved in 5% propylene glycol. Rats were administrated with GQ-5 as described before. All the rats were sacrificed 14 days after UUO. HE staining, Masson trichrome staining were performed to examine the renal tissue injury, and Real-time PCR analyses, immunohistochemical staining, and Western blot analyses were performed to examine α-SMA, collagen I and fibronectin expression in kidney tissue

[7] = biological target: interaction of Smad3 with TβRI (Rattus norvegicus, UniProt P84025); assay: Immunoprecipitation of Smad3 with TβRI in vitro; assay type: cell-based; settings: NRK52E cells, GQ-5 2.5 nM pre-treated 1 h, TGF-β1 10 ng/ml 1 h
Chain of interaction of Smad3 with TβRI (P84025 whole entry): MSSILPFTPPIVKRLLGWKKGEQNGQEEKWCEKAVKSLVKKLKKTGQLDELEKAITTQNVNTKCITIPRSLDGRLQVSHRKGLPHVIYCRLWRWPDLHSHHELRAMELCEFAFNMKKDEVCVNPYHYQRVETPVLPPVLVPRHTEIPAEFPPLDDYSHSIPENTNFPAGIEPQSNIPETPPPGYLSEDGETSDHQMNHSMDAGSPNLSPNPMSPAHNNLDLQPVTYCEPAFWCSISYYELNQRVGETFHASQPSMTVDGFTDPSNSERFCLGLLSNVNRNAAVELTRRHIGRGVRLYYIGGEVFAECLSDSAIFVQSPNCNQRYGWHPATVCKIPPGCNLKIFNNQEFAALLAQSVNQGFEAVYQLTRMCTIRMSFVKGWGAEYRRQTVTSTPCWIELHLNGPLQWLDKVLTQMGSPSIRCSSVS
Protocol: NRK52E cells were cultured in DMEM-Ham's medium supplemented with 10% fetal bovine serum. The cells reached at approximately 50% confluence were used for in vitro experiments. Cells were serum-starved for 12 h, and randomized into 4 groups: (1) Controls; (2) GQ-5 only; (3) TGF-β1 only; (4) TGF-β1+GQ-5
(2) GQ-5 only: pre-treated with GQ-5 (2.5 nM) for 1 h, followed with DMEM for 1 h
(3) TGF-β1 only: pre-treated with DMSO for 1 h, followed with TGF-β1 (10 ng/ml) for 1 h
(4) TGF-β1+GQ-5: pre-treated with GQ-5 (2.5 nM) for 1 h, followed with TGF-β1 (10 ng/ml) for 1 h
GQ-5 was dissolved in DMSO. Cells were treated as described. Cell lysates were collected for immunoprecipitation to examine the interaction among TGFβ type I receptor (TβRI), TβRII, Smad3 and Smad2.

[8] = biological target: interaction of Smad2 with TβRI (Rattus norvegicus, UniProt O70436); assay: Immunoprecipitation of Smad2 with TβRI in UUO kidneys; assay type: in vivo; settings: GQ-5 40 mg/kg daily i.p. right after UUO, sacrificed day 14
Chain of interaction of Smad2 with TβRI (O70436 whole entry): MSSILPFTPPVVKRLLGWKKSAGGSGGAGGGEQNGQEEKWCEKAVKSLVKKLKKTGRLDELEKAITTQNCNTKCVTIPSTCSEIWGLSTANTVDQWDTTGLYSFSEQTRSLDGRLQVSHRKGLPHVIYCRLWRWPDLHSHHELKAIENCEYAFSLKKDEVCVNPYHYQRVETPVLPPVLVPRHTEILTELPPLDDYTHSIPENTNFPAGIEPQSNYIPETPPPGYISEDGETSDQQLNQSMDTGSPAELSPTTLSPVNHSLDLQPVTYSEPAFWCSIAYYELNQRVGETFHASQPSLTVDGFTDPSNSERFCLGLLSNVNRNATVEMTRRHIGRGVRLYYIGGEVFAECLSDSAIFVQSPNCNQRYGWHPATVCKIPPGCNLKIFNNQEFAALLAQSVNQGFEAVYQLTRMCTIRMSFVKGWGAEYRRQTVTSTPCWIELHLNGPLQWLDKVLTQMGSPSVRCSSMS
Protocol: as §1, §2, §3
UUO was performed using an established protocol as described. GQ-5 was dissolved in 5% propylene glycol. Rats were administrated with GQ-5 as described before. All the rats were sacrificed 14 days after UUO. Immunoprecipitation analyses were performed to examine the interaction among TβRI, TβRII, Smad3 and Smad2.

Compound: CCCCCC/C=C\CCCCCCCc1cccc(O)c1O [GQ-5, 3-[(Z)-pentadec-8-enyl]catechol]
- phosphorylation of p38 [1]: did not affect
- TGF-β1-induced mRNA expression of fibronectin [2]: significantly inhibited
- TGF-β1-induced protein expression of α-SMA [3]: significantly inhibited
- TGF-β1-induced protein expression of collagen I [4]: significantly inhibited
- TGF-β1-induced protein expression of fibronectin [5]: significantly inhibited
- up-regulation of collagen I at both mRNA and protein level [6]: significantly inhibited
- interaction of Smad3 with TβRI [7]: significantly blocked
- interaction of Smad2 with TβRI [8]: did not affect
